From article PMC12442081, “Combating Fuel Biocontamination: Tailored Antimicrobial Peptides and an Innovative Delivery Strategy” (ACS Applied Bio Materials, 2025)
Where no end group is shown, it is not given here.

What was measured:
[1] = tested on: Bacillus licheniformis (BL) ATCC 14580; type: cell-based; details: ATCC 14580
Method in brief: (§1)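 Overnight LB cultures, 37 °C → mid-log → 5 × 10^5 CFU/mL; 1:1 with serially diluted peptides, o/n 37 °C, ambient air. MIC = lowest conc. inhibiting growth (plate reader). n = 3, mean reported.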

[2] = tested on: Dermacoccus nishinomiyaensis (DN) ATCC 29093; type: cell-based
Method in brief: as §1

[3] = tested on: Kocuria rosea (KR) ATCC 186; type: cell-based
Method in brief: as §1

[4] = tested on: Macrococcus caseolyticus (MC) ATCC 13548; type: cell-based
Method in brief: as §1

[5] = tested on: Micrococcus yunnanensis (MY) ATCC 12698; type: cell-based
Method in brief: as §1

[6] = tested on: Pseudomonas aeruginosa (PA) ATCC 39327; type: cell-based; details: ATCC 39327
Method in brief: as §1

[7] = tested on: Roseomonas mucosa (RM) ATCC BAA-692; type: cell-based
Method in brief: as §1

[8] = tested on: Sphingomonas paucimobilis (SP); type: cell-based
Method in brief: as §1

[9] = tested on: Sheep red blood cells (RBCs); assay: Hemolysis assay; type: cell-based
Method: The RBCs were centrifuged at 1000g for 15 min at 4 °C to remove the buffy coat and washed 3 times with PBS. 100 μL of 4% (v/v) RBC was suspended in PBS and added into sterilized 96-well plates. 100 μL of peptide solution was added to the suspension of RBCs by serial dilution starting from 200 μM to […] and incubated overnight at 37 °C. Sample absorbance at 545 nm was measured to determine hemoglobin release after centrifuging the plate at 600 g for 10 min. The percentage of cell lysis was calculated using the following formula (eq ). , 1 %lysis=OD545(test)−OD545(blank)/OD545(totallysis)−OD545(blank)×100

[10] = HPLC retention time as a function of peptide hydrophobicity; type: physicochemical; details: chromatographic, Polaris 5 C18-A reverse phase, 0.1% TFA water / 0.1% TFA acetonitrile gradient, 30 min, 300 μM peptide
Method in brief: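 Reverse-phase C18 HPLC used water and acetonitrile, each with 0.1% (v/v) TFA, under a constant gradient run for 30 min after injection. Samples were 300 μM peptide in acetonitrile–water (1:4).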

[11] = tested on: Bacillus licheniformis (BL); assay: Effectiveness of peptides on spiked fuel samples (aqueous layer); type: cell-based; design: key: (+) =1 (implying peptide activity in fuel environment); (X) = 0 (implying no activity in the desired range, indicated by microbial proliferation); Fuel x = -1(implying no activity in fuel environment); details: initial screening in spiked fuel
Method in brief: (§2)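 Peptides are applied at MIC to the aqueous layer of microbially spiked fuel–BH medium mixtures (1:1 v/v). Incubation runs aerobically at 30 °C for up to 30 days. Growth is tracked by plating samples from both phases on agar at weekly intervals.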

[12] = tested on: Dermacoccus nishinomiyaensis (DN); assay: as above; type: cell-based; design: key: (+) =1 (implying peptide activity in fuel environment); (X) = 0 (implying no activity in the desired range, indicated by microbial proliferation); Fuel x = -1(implying no activity in fuel environment); details: initial screening in spiked fuel
Method in brief: as §2

[13] = tested on: Hormoconis resinae (HR); assay: as above; type: cell-based; design: key: (+) =1 (implying peptide activity in fuel environment); (X) = 0 (implying no activity in the desired range, indicated by microbial proliferation); Fuel x = -1(implying no activity in fuel environment); details: initial screening in spiked fuel
Method in brief: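 Filter-sterilized fuel was mixed 1:1 (v/v) with BH medium, the organism was inoculated into the bottom aqueous phase, and peptides were added there at their MICs. Cultures were held aerobically at 30 °C for 30 days, with both layers plated on LBA at 7, 14, 21 and 30 days for viability.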

[14] = tested on: Kocuria rosea (KR); assay: as above; type: cell-based; design: key: (+) =1 (implying peptide activity in fuel environment); (X) = 0 (implying no activity in the desired range, indicated by microbial proliferation); Fuel x = -1(implying no activity in fuel environment); details: initial screening in spiked fuel
Method in brief: as §2

[15] = tested on: Macrococcus caseolyticus (MC); assay: as above; type: cell-based; design: key: (+) =1 (implying peptide activity in fuel environment); (X) = 0 (implying no activity in the desired range, indicated by microbial proliferation); Fuel x = -1(implying no activity in fuel environment); details: initial screening in spiked fuel
Method in brief: as §2

[16] = tested on: Micrococcus yunnanensis (MY); assay: as above; type: cell-based; design: key: (+) =1 (implying peptide activity in fuel environment); (X) = 0 (implying no activity in the desired range, indicated by microbial proliferation); Fuel x = -1(implying no activity in fuel environment); details: initial screening in spiked fuel
Method in brief: as §2

[17] = tested on: Pseudomonas aeruginosa (PA); assay: as above; type: cell-based; design: key: (+) =1 (implying peptide activity in fuel environment); (X) = 0 (implying no activity in the desired range, indicated by microbial proliferation); Fuel x = -1(implying no activity in fuel environment); details: initial screening in spiked fuel
Method in brief: as §2

[18] = tested on: Roseomonas mucosa (RM); assay: as above; type: cell-based; design: key: (+) =1 (implying peptide activity in fuel environment); (X) = 0 (implying no activity in the desired range, indicated by microbial proliferation); Fuel x = -1(implying no activity in fuel environment); details: initial screening in spiked fuel
Method in brief: as §2

[19] = tested on: Sphingomonas paucimobilis (SP); assay: as above; type: cell-based; design: key: (+) =1 (implying peptide activity in fuel environment); (X) = 0 (implying no activity in the desired range, indicated by microbial proliferation); Fuel x = -1(implying no activity in fuel environment); details: initial screening in spiked fuel
Method in brief: as §2

[20] = tested on: microbial clusters MY, KR, DN, MC, BL, RM, SP, PA, HR; assay: Broad-spectrum activity score (in-house scoring matrix); details: sum over 9 microbial clusters: (+) = 1, (X) = 0, Fuel x = -1
Method in brief: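 Each peptide is scored per microbial cluster from its MIC/efficacy with fuel co-incubation: +1 = active in the fuel environment, 0 = no activity in the desired range (microbial proliferation), −1 = no activity in the fuel environment. The score is built from these per-cluster points.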

Sequence: ILPWKWPWWPFRR [P4]
- MIC [1]: 0.9 µM
- MIC [2]: 0.9 µM
- MIC [3]: 0.9 µM
- MIC [4]: 0.9 µM
- MIC [5]: 0.9 µM
- MIC [6]: 7.8 µM
- MIC [7]: 3.9 µM
- MIC [8]: 0.9 µM
- HL50, conc. to reach 50% cell lysis [9]: 10 µM
- R t, retention time of peptide on HPLC column as a function of peptide hydrophobicity [10]: 12.891 min
- activity considering MIC value/efficacy upon fuel co-incubation [11]: +
- activity considering MIC value/efficacy upon fuel co-incubation [12]: +
- activity considering MIC value/efficacy upon fuel co-incubation [13]: X
- activity considering MIC value/efficacy upon fuel co-incubation [14]: +
- activity considering MIC value/efficacy upon fuel co-incubation [15]: +
- activity considering MIC value/efficacy upon fuel co-incubation [16]: +
- activity considering MIC value/efficacy upon fuel co-incubation [17]: X
- activity considering MIC value/efficacy upon fuel co-incubation [18]: +
- activity considering MIC value/efficacy upon fuel co-incubation [19]: +
- Score [20]: 7
